Reference: patent US8642343B2, “Blood separating agent and blood collection container” (Sekisui Medical Co., Ltd., priority 2010, dated 2014)

Test: Solubility of polymerization inhibitors at 25° C.
Details: in water

| Solubility (25° C.) | Solubility (25° C.) (listed as hydroquinone) | Compound |
| --- | --- | --- |
| 4 g/100 ml |  | COc1ccc(O)cc1 [Material 1, p-methoxyphenol] |
| 7 g/100 mL g/100 ml | 7 g/100 ml | Oc1ccc(O)cc1 [Material 4, hydroquinone, reference compound] |
| 0.002 g/100 ml |  | CC(C)(C)c1cc(O)c(C(C)(C)C)cc1O [Material 2, 2,5-di-t-butylhydroquinone] |

| Compound | Solubility (25° C.) | Solubility (25° C.) (listed as hydroquinone) |
| --- | --- | --- |
| c1ccc2c(c1)Nc1ccccc1S2 [Material 3, phenothiazine] | insoluble |  |
